# Measured values published in patent publication US12377112B2, “Methods of treating neurocognitive disorders, chronic pain and reducing inflammation” (priority 2019, dated 2025).
# Marks after values point to notes of the source that are not given here.
# Experiments:
# Wistar-Kyoto (WKY) rats = assay: Sleep-wake amounts (EEG/EMG) in Wistar-Kyoto rats; type: in vivo, rat; conditions: 5 mg/kg and 10 mg/kg s.c.
# Text: Since WKY rats show decreased sensitivity to conventional monoamine-based antidepressant treatment, they are used as a model of TRD.
# Male (WKY) rats (200-250 g) were implanted with electroencephalography (EEG) and electromyography (EMG) electrodes and telemetry transmitters under general anaesthesia (2-5% isoflurane in Oxygen). A telemetry transmitter (HD-502, Data Sciences International) was placed in the peritoneal cavity, and the wires of the transmitter were passed through the muscle wall and then sub-dermally to the scalp to act as EEG/EMG electrodes. Two bore holes were made in the skull (Fronto-parietal coordinates; Bregma +2 mm anterior, midline +1.0 mm lateral and Lambda 0 mm, +1.5 mm lateral). The positive EEG electrode was attached to the anterior bore hole and the negative EEG electrode to the posterior bore hole. Both electrodes were secured in place using a suitable adhesive agent (Cyanoacrylate gel, RS components). […]
# Animals were maintained on a 12/12 hour light dark cycle. On study days, the animals were placed in recording boxes and EEG/EMG, locomotor activity, as well as body temperature were recorded for 0.5 h before and 24 h after each dosing. […]
# The subsequent EEG/EMG recordings were automatically scored as wake, non-REM (NREM) sleep, or REM sleep in 10 second epochs using SleepSign (Kissei Comtec, Japan). […]
# male C57BL/6 mice = assay: Chronic constriction injury (CCI) model of neuropathic pain, von Frey paw withdrawal threshold; type: in vivo, mouse
# Procedure: To determine whether psilocybin may alleviate chronic neuropathic pain, various doses of psilocybin were tested in a mouse model of chronic constriction injury (CCI).
# Male C57BL/6 mice (age 6-7 weeks, source: Charles River UK) were housed in standard caging in groups of 2-4, with free access to food (5CR4, Purina) and water (except during placement in the test box) on a 12/12 light/dark cycle.
# All animals underwent behavioral testing of mechanical allodynia on three consecutive days (Day −2, Day−1 and Day 0) prior to surgery in order to determine the baseline withdrawal thresholds. Briefly, Static mechanical (tactile) allodynia was assessed by measurement of withdrawal threshold using calibrated (force; g) von-Frey monofilaments (Touch-Test Sensory Evaluator; Scientific Marketing Associates) applied to the plantar surface of the hind-paw. The animals were placed in individual Perspex boxes on a raised metal mesh for 30-40 minutes before the test. A series of graduated von Frey hairs (0.07, 0.16, 0.4, 0.6 and 1 g) was applied in sequence with a protocol of 1 second on 1 second off, repeated 10 times. Each hair was applied perpendicularly to the center of the ventral surface of the paw until it slightly bends. The force applied to the hind-paw of the animal to induce 5 responses out of 10 trials was recorded as paw withdrawal threshold (PWT). Three baseline paw withdrawal thresholds were taken on ipsilateral paws. The mean of the last two readings used as the baseline withdrawal threshold.
# Subsequently, surgery was performed under anesthesia (Isoflurane mixed with oxygen, 3:1, 2 L/min) to tie three loose ligatures of prolene (7-0, Ethicon) around the sciatic nerve, with 1 mm spacing between each. The nerve was then returned below the muscle layer and the wound closed using absorbable sutures (Vicryl).
# Following recovery from surgery, Von Frey assessment of mechanical allodynia was taken on days 19 and 22. Animals were then ranked and randomized (based on a Latin square design) to treatment groups according to the percentage change (compared to pre-surgery baseline) of the mean mechanical withdrawal threshold observed on days 19 and 22. Only those animals showing a PWT percentage change of >50% from pre-surgery baseline were included in the study.
# On day 23, the animals were dosed with psilocybin (1, 3 or 10 mg/kg by intraperitoneal injection) or vehicle (10 mL/kg by intraperitoneal injection). Nerve pain medication Pregabalin (15 mg/kg administered orally) was also used as a positive control. Allodynia was then assessed at 0.5, 4 and 24 hours post-treatment timepoint (PTT).
# [1] = tested on: rat primary hippocampal culture, Aβ 1-40 intoxication; assay: Fibrillated amyloid-β damage on cultures of hippocampal neurons (MTT viability); type: cell-based
# Text: Amyloid-β toxicity is a hallmark of Alzheimer's disease, and is also frequently seen in multiple sclerosis lesions. In this study, the neuroprotective effect of psilocin on amyloid-β-induced neuronal death in rat primary hippocampal culture was investigated.
# Female Wistar rats of 19 days gestation were killed by cervical dislocation and foetuses were removed from the uterus. Their brains were placed in ice-cold medium of Leibovitz (L15, Gibco, Fisher bioblock, France). Hippocampi were carefully removed, and the hippocampal neurons were dissociated by trypsinization for 30 min at 37° C. (trypsin-EDTA, Gibco) in presence of 0.1 mg/ml DNAse I (Roche, France). […] Viable cells were counted in a Neubauer cytometer using the trypan blue exclusion test (Sigma). […]
# Psilocin was added to cells 10 minutes or 48 hours before amyloid-β intoxication. Neuronal viability was assessed 48 hours after amyloid-β intoxication. […]
# Two days after Aβ exposure (day 11), cell viability was assessed by a measurement of cell metabolic activity using the CellTiter96® non-radioactive kit (MTT, Promega, Charbonnières, France). […] Solubilization solution was added and visible wavelength absorbance data was collected 4 hours later using a 96-well plate reader at 570 nm and 630 nm for non-specific background (Multiskan EX, Thermo Fisher).
# [2] = tested on: human iPSC-derived neurons; assay: Neurite outgrowth in human iPSC-derived neurons; type: cell-based
# Procedure: The neurotrophic effect of psilocin was tested on human iPSC-derived neuronal cultures. Two parameters were evaluated: the average number of neurites per neuron, and the average total neurite length per neuron. Briefly, neurons establish physical connections between them in order to create neuronal networks.
# Cryopreserved iCell neurons were thawed and plated according to Cellular Dynamics International instructions. The pharmacological treatments were carried out 2 hours after the cell plating. The cells were maintained in a humidified incubator at 37° C. in 5% CO2-95% air atmosphere.
# Stock solutions of psilocin were prepared in 100% DMSO at 1000 times the final concentration in the culture media (1000× concentration).
# For each culture, each condition was performed in sextuplet.
# Each plate contained two types of other experimental conditions: the control condition treated with vehicle and the culture treated with Brain-derived neutrophic factor (BDNF).
# Plate 1 and 2: Cells were treated with psilocin at 3 different concentrations: 0.03 μM, 0.1 μM, 0.3 μM. The stock solution was prepared fresh in 100% DMSO at 10 mM. BDNF was used in parallel.
# Ten days after plating, cultures were fixed with paraformaldehyde in PBS (phosphate buffered saline) (4%, Sigma). Then, cells were successively permeabilized, saturated with PBS (containing 3% of BSA) and incubated for 1 h with anti-beta III tubulin antibody (Sigma) at 1/10 000 in PBS containing 0.5% of BSA (bovine serum albumin). Cells were first washed and were then incubated 1 h with goat anti-mouse antibody coupled with AF488 (Invitrogen A11001) diluted at 1/1000 in PBS containing 0.5% of BSA. Finally, nuclei are stained with DAPI 1 mg/ml at 1/1000 in PBS containing 0.5% of BSA. After rinsing them with PBS, the plate was filmed and neurite networks were examined and analyzed using High-Content Screening (CellInsight, Thermo Scientific).
# The evaluation of neurite outgrowth was performed using the average number of neurites per neuron and the average of total neurite length per neuron, using Sholl method (Bird & Cuntz, 2019). (See FIG. 59A, FIG. 59B, FIG. 60A, FIG. 60B).
# [3] = tested on: rat embryo mesencephalic cells, 6-OHDA; assay: 6-OHDA damage on mesencephalic neuronal cultures (TH positive neurons); type: cell-based; conditions: 1 μM, 3 μM and 10 μM, one hour prior to 15 μM 6-OHDA
# Procedure: The neuroprotective effect of psilocin against 6-OHDA-mediated injury on mesencephalic neuronal cultures was investigated.
# A primary culture of rat embryo mesencephalic cells was plated on a 96-well plate. The cells were maintained at 37° C. in 5% CO2. Half of the medium was changed on day 2.
# On day 6, the culture medium was removed and replaced by media containing psilocin (0.03 μM, 0.1 μM, 0.3 μM, 1 μM, 3 μM, or 10 μM), a negative control (saline vehicle, labelled control in FIG. 10), or a positive control (brain-derived neurotrophic factor (BDNF) and glial cell-derived neurotrophic factor (GDNF))). After one hour, 15 μM 6-OHDA was added for 48 hours.
# On day 8, immunodetection was used to determine the number of tyrosine hydroxylase positive neurons.
# Neuronal viability was assessed 48 hours after 6-OHDA intoxication and measured by the number of TH (tyrosine hydroxylase) positive neurons. The compound 6-OHDA kills specifically dopaminergic neurons, mimicking the cellular pathophysiology of Parkinson's disease. […] The result for each well was expressed as a percentage by setting the density of tyrosine hydroxylase positive cells under control conditions to 100%. The result for each condition was reported as mean (±S.E.M.) from 4 independent cultures.
structure (smiles),measurement,setting,value
CNC1(c2ccccc2Cl)CCCCC1=O (centres unmarked) [ketamine],Amount of REM sleep,Wistar-Kyoto (WKY) rats,decreased the amount of REM sleep in a dose-dependent manner
"CC(C)C[C@H](CN)CC(=O)O [pregabalin, reference compound]","Force-induced paw withdrawal, mean","male C57BL/6 mice; 15 mg/kg PO group, D19-22 Neuropathic baseline (before dosing)",0.13 g
same,"Force-induced paw withdrawal, mean","male C57BL/6 mice; 15 mg/kg PO group, D-2 D-1 Baseline (before surgery and dosing)",0.67 g
same,"Force-induced paw withdrawal, mean","male C57BL/6 mice; 15 mg/kg PO, D23 0.5 hours PTT",0.19 g
same,"Force-induced paw withdrawal, mean","male C57BL/6 mice; 15 mg/kg PO, D23 4 hours PTT",0.46* g
same,"Force-induced paw withdrawal, mean","male C57BL/6 mice; 15 mg/kg PO, D24 24 hours PTT",0.16 g
same,Paw withdrawal threshold vs neuropathic baseline,"male C57BL/6 mice; 15 mg/kg orally, 4 hours",significant increase
CN(C)CCc1c[nH]c2cccc(O)c12 [psilocin],Neuronal viability after amyloid-β,"[1]; 10 μM, applied 10 minutes prior to amyloid-β",increased neuronal viability
same,Neuronal viability after amyloid-β,"[1]; 0.3, 1, 3 and 10 μM, applied 48 hours prior to amyloid-β",increased neuronal viability
same,Average lengths of neurites,"[2]; 0.03 μM, treated at Day 0",significant increases
same,Average length of neurites,"[2]; 0.03 μM, treated at Day 3",increase
same,Number of neurites per neurons,"[2]; 0.03 μM, treated at Day 3",increase
same,Length of neurites,[2]; 0.1 μM,increased
same,Neuronal viability (TH positive neurons) after 6-OHDA,[3],increased neuronal viability
